Results taken from the supplement of paper PMC4862054.

How the values were obtained:
CAL-51 = test: normalised viability (% of control), CellTiter-Blue; higher = more viable cells (about 100 = DMSO control); details: incubation time: 72 h
Method in brief: (§1)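 384-well plates were pre-loaded with compound in 5 µl medium before 20 µl of breast cancer cell suspension was seeded. Following 72 h incubation, 2.5 µl CellTiter-Blue reagent was added for 2 h at 37 °C. Fluorescence was read at 560/590 nm and plates were normalised to vehicle (100) and a positive kill control (0), checked by Z'-factor. Normalised viability is reported at a single listed concentration of the series.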

MDA-MB-436 = test: as above; details: incubation time: 72 h
Method in brief: as §1

HCC1143 = test: as above; details: incubation time: 72 h
Method in brief: as §1

MDA-MB-468 [1] = test: as above; details: incubation time: 72 h
Method in brief: as §1

MFM-223 = test: as above; details: incubation time: 72 h
Method in brief: as §1

BT-474 [2] = test: as above; details: incubation time: 72 h
Method in brief: as §1

DU-4475 = test: as above; details: incubation time: 72 h
Method in brief: as §1

BT-549 = test: as above; details: incubation time: 72 h
Method in brief: as §1

CAL-148 = test: as above; details: incubation time: 72 h
Method in brief: as §1

CAL-85-1 = test: as above; details: incubation time: 72 h
Method in brief: as §1

Hs578T = test: as above; details: incubation time: 72 h
Method in brief: as §1

HCC1937 = test: as above; details: incubation time: 72 h
Method in brief: as §1

HDQ-P1 [3] = test: as above; details: incubation time: 72 h
Method in brief: as §1

MDA-MB-231 = test: as above; details: incubation time: 72 h
Method in brief: as §1

MDA-MB-453 = test: as above; details: incubation time: 72 h
Method in brief: as §1

CAL-120 = test: as above; details: incubation time: 72 h
Method in brief: as §1

HCC1599 = test: as above; details: incubation time: 72 h
Method in brief: as §1

SK-BR-3 = test: as above; details: incubation time: 72 h
Method in brief: as §1

MDA-MB-468 [4] = details: 72 h
Method in brief: (§2)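 Breast cancer cell lines in 20 µl suspension were added to 384-well plates already holding compound at 5 concentrations, spaced in 10-fold steps across a compound-specific 10,000-fold range, and incubated for 72 h. CellTox Green fluorescence (485/520 nm) was read first to measure cell death, followed by CellTiter-Glo luminescence for viability after 10 min at room temperature. Each plate was normalised to 0.1 % DMSO and a positive kill control. EC50 values came from dose-response curve fits and were censored at the top concentration.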

BT-474 [5] = details: 72 h
Method in brief: as §2

HDQ-P1 [6] = details: 72 h
Method in brief: as §2

Cn1cnc2c(F)c(Nc3ccc(Br)cc3Cl)c(C(=O)NOCCO)cc21 [Selumetinib]
normalised viability [%]
Details | 3 nM | 10 nM | 30 nM | 100 nM | 1000 nM | 10000 nM
BT-474 [2] | – | 104 | – | – | 105 | 104
BT-549 | – | 109 | – | – | 101 | 95.3
CAL-51 | 116 | – | 102 | 96.3 | – | –
CAL-85-1 | 88.1 | – | 93.6 | 100 | – | –
CAL-120 | – | 78.8 | – | – | 78.6 | 63.3
CAL-148 | 91 | – | 87.9 | 88.9 | – | –
DU-4475 | 95.1 | – | 72.5 | 43.7 | – | –
HCC1143 | – | 79.7 | – | – | 58.2 | 49.7
HCC1599 | – | 112 | – | – | 78.3 | 76.3
HCC1937 | – | 65.3 | – | – | 83.8 | 68.6
HDQ-P1 [3] | 92.4 | – | 107 | 92.6 | – | –
Hs578T | – | 90.8 | – | – | 89.8 | 76.2
MDA-MB-231 | – | 90.3 | – | – | 49.5 | 30
MDA-MB-436 | – | 113 | – | – | 59.8 | 101
MDA-MB-453 | 122 | – | 105 | 110 | – | –
MDA-MB-468 [1] | – | 106 | – | – | 95 | 69.5
MFM-223 | – | 86.2 | – | – | 89.7 | 73.1
SK-BR-3 | – | 98.7 | – | – | 114 | 93.6

Details | EC50, CellTiter-Glo [µM]
BT-474 [5] | 0.361
HDQ-P1 [6] | 0.0448
MDA-MB-468 [4] | 5.03

Nc1nc2[nH]cnc2c(=S)[nH]1 [Thioguanine]
normalised viability [%]
Details | 3 nM | 10 nM | 30 nM | 100 nM | 1000 nM | 10000 nM
BT-474 [2] | – | 112 | – | – | 113 | 102
BT-549 | – | 94 | – | – | 106 | 49
CAL-51 | 114 | – | 109 | 109 | – | –
CAL-85-1 | 111 | – | 97.4 | 104 | – | –
CAL-120 | – | 94.1 | – | – | 67.2 | 34.9
CAL-148 | 105 | – | 116 | 102 | – | –
DU-4475 | 120 | – | 112 | 116 | – | –
HCC1143 | – | 92.6 | – | – | 103 | 82.9
HCC1599 | – | 111 | – | – | 77 | 103
HCC1937 | – | 76.3 | – | – | 86.1 | 40.4
HDQ-P1 [3] | 117 | – | 127 | 101 | – | –
Hs578T | – | 137 | – | – | 96.4 | 32.9
MDA-MB-231 | – | 92.7 | – | – | 58.4 | 56
MDA-MB-436 | – | 104 | – | – | 74.5 | 65.6
MDA-MB-453 | 132 | – | 102 | 98.6 | – | –
MDA-MB-468 [1] | – | 104 | – | – | 62.1 | 44.4
MFM-223 | – | 89.4 | – | – | 88.6 | 82.2
SK-BR-3 | – | 99.7 | – | – | 103 | 49.6

Details | EC50, CellTiter-Glo [µM]
BT-474 [5] | 0.197
HDQ-P1 [6] | 2.97
MDA-MB-468 [4] | 9.67
